In experiment [1] the test system is Caspase-3 gene. Description: RT-PCR apoptotic gene expression. The format is cell-based, human. To be noted: 13 μM, 48 h, MDA-MB-231, vs negative control. The method, then:
(§1) Dissection of the compound’s proapoptotic activity was proceeded through gene expression analysis for key genes, controlling apoptosis pathway, as well as protein level determination. Following 8b treatment for 48 h, alterations within MDA-MB-231/breast cancer cell expression of Bcl-2, Bax, caspase-3, -8, and -9 genes, as well as cytochrome c and class-III β-tubulin proteins levels were determined using real-time polymerase chain reaction (RT-PCR) or ELISA technique, respectively. Typically, Bcl-2, Bax, caspases, and cytochrome c proteins contributes within the regulation of apoptotic signaling. Acting as apoptotic activator (Bax) or inhibitor (Bcl-2), the Bcl-2 family proteins play their significant role in apoptosis. The caspases family are cysteine proteases being classified as either executioners; caspase-3, -6, or -7 or initiators; caspase-8 and -9 [36]. Regrading caspase-8, its activation is proceeded through extrinsic death-receptor dependent apoptotic pathway, while, caspase-9 activation is within the event of intrinsic mitochondrial cytochrome c leakage. Additionally, participation of activated caspase-3 is to be essential for […] activation. Class-III β-tubulin are pure prognostic biomarker within cancer patients being associated with aggressive phenotypic/drug-resistant cancers and part of complicated pro-survival molecular pathway, being triggered via poor nutrient supply and hypoxia.
(§2) Quantitative Real-time PCR was operated on Rotor-Gene Q® PCR system as a reader (Cat.#: 204774; Qiagen^TM, Milan, Italy) via GenElute® RNA extraction/SIGMA PCR kit (Cat.#: REI10; Qiagen^TM, Milan, Italy)^86. Cells were treated with IC50 of 8b for 48 h and total RNA was extracted from the non-treated and treated cells. RNA purity was assessed via Nanodrop® 2000/2000c UV-Vis spectrophotometer (Thermo-Scientific^TM, Bilbao, Spain). Synthesis of cDNA was proceeded using QuantiNova® Reverse Transcription Kit (Cat.#: RTN30; Qiagen^TM, Milan, Italy) and the subsequent PCR tests were conducted via single tubes. Specific forward/reverse primer pairs were selected for investigated (Casp-3, -8, -9, BAX, and Bcl2). Obtained results were expressed within Cycle threshold (Ct) values, while relative quantitation of each measured gene was assessed based on ΔΔCt calculations as represented in Table 5 [79].

Experiment [2] has as its system BAX gene. Description: RT-PCR apoptotic gene expression. The format is cell-based, human. To be noted: 13 μM, 48 h, MDA-MB-231, vs negative control. The protocol: as §1, §2
Experiment [3] concerns Caspase-8 gene. Nature of the experiment: RT-PCR apoptotic gene expression. Type of experiment: cell-based, human. The following applies: 13 μM, 48 h, MDA-MB-231, vs negative control. The protocol:
as §1, §2

For experiment [4], the system named is Bcl-2 gene. Description: RT-PCR apoptotic gene expression. The format is cell-based, human. The following applies: 13 μM, 48 h, MDA-MB-231, vs negative control. The protocol:
as §1, §2

The subject of experiment [5] is Caspase-9 gene. Nature of the experiment: RT-PCR apoptotic gene expression. The following applies: 13 μM, 48 h, MDA-MB-231, vs negative control. The format is cell-based, human. The protocol: as §1, §2
In experiment [6] the test system is class-III β-tubulin. Nature of the experiment: ELISA protein level. The format is cell-based, human. To be noted: 48 h. The protocol: as §1, with “Class-III β-tubulin are pure prognostic biomarker within cancer patients being associated with aggressive phenotypic/drug-resistant cancers and part of complicated pro-survival molecular pathway, being triggered via poor nutrient supply and hypoxia.” left out

Experiment [7] concerns Bax/Bcl-2 gene expression ratio. Nature of the experiment: RT-PCR Bax/Bcl-2 gene expression ratio. The format is cell-based, human. To be noted: 13 μM, 48 h, MDA-MB-231; control 1. The protocol: Dissection of the compound’s proapoptotic activity was proceeded through gene expression analysis for key genes, controlling apoptosis pathway, as well as protein level determination. Following 8b treatment for 48 h, alterations within MDA-MB-231/breast cancer cell expression of Bcl-2, Bax, caspase-3, -8, and -9 genes, as well as cytochrome c and class-III β-tubulin proteins levels were determined using real-time polymerase chain reaction (RT-PCR) or ELISA technique, respectively. Typically, Bcl-2, Bax, caspases, and cytochrome c proteins contributes within the regulation of apoptotic signaling. Acting as apoptotic activator (Bax) or inhibitor (Bcl-2), the Bcl-2 family proteins play their significant role in apoptosis. The caspases family are cysteine proteases being classified as either executioners; caspase-3, -6, or -7 or initiators; caspase-8 and -9 [36]. […]
Quantitative Real-time PCR was operated on Rotor-Gene Q® PCR system as a reader (Cat.#: 204774; Qiagen^TM, Milan, Italy) via GenElute® RNA extraction/SIGMA PCR kit (Cat.#: REI10; Qiagen^TM, Milan, Italy)^86. […] RNA purity was assessed via Nanodrop® 2000/2000c UV-Vis spectrophotometer (Thermo-Scientific^TM, Bilbao, Spain). […] Obtained results were expressed within Cycle threshold (Ct) values, while relative quantitation of each measured gene was assessed based on ΔΔCt calculations as represented in Table 5 [79].

The test system of experiment [8] is MDCK/kidney non-cancerous cells. Description: MTT-cell proliferation assay on non-cancerous cell line. Type of experiment: cell-based. To be noted: 48 h drug exposure, mean ± SEM. From the text:
The potential anti-cancer activity of all fourteen final synthesized compounds was investigated through MTT cytotoxic assay against two different human solid cancerous cell lines; A549/lung and MDA-MB-231/breast adenocarcinoma. The adopted cell-proliferation assay assessed % cell viability in relation to the reducing activity of cellular NADPH-dependent cellular oxidoreductases on tetrazolium dye, MTT [2,5-diphenyl-3-(4,5-dimethylthiazol-2-yl)tetrazolium bromide salt], for furnishing an easily quantified insoluble chromogenic formazan. For each drug concentration, 0.1, 1, 10, and 100 μM, the % cell-viability was estimated relative to negative control following a complete 48 h of drug treatment. Both 5-fluorouracil (5-FU) and doxorubicin (DOX) were set as positive index comparators. Moreover, the safety profile of the synthesized compounds was further investigated by examining their in-vitro cytotoxicity on non-cancerous cell line; MDCK/kidney cells.
Evaluating the cytotoxicity of tested compounds on two cancer cell lines (A549/lung and MDA-MB-231/breast adenocarcinoma) and non-cancerous (MDCK/kidney cells) was performed while adopting the formerly described method with small alterations. Cancer cell lines were propagated within Dulbecco’s Modified Eagle Medium-High Glucose (Cat.#: P0103; DMEM_High Glucose with Na.Pyruvate and stable Glutamine, Biowest^TM, Nuaillé, France), while MDA-MB-231 cells were propagated within RPMI-1640 L-Glutamine medium (Cat.#:12-604F; Lonza-Verviers SPRL^TM, Verviers, Belgium). The culturing media were supplemented via 1% antibiotic-antimycotic 100X (Cat.#: L0010; Biowest^TM, Nuaillé, France) and 10% fetal bovine serum (FBS) (Cat.#: EU-000-H; Seralab^TM, West Sussex, UK). Cells were seeded as triplicates within 96-well plate, at 1 × 10^4 cells per well density, after being counted and viability checked using the trypan blue staining solution (Cat.# ab233465; Abcam^TM, Cambridge, MA, USA). Seeded cells were permitted to adhere for 24 h under 5% CO2 and at 37 °C incubating conditions. The assigned compounds were dissolved in 500 µL DMSO affording the stock solution (100 mM) being ready for more diluting within the whole medium to obtain the compound’s final concentrations; 0.1, 1, 10, 100 µM for cell treatments. […] Following 24 h compound-cell treatment, the medium was substituted by fresh one and cells were permitted to develop for 48 h. At four hours prior the end of incubation, 10 μL MTT Sigma-Aldrich^TM (5 mg/mL in PBS 1X without magnesium and calcium; Cat.# 17-516F, Lonza-Verviers^TM, Basel, Switzerland) were added to all wells. Following the complete 48 h incubation, 100 μL DMSO was all added to all wells where they were subsequently centrifuged at 4000 rpm for 5 min allowing the formazan crystals of formazan to precipitate. Color was established and intensities were recorded at 490 nm using Synergy-Neo2® Hybrid MultiMode Plate Reader (BioTek^TM, Winooski, VT, USA), while subtracting the multi-well plates background absorbance at 690 nm. Percentage cell viability was estimated using the subsequent formula: % cell-viability = (average absorbance of treated wells/average absorbance of controls) × 100.
In general terms: Tetrazolium dyes change colour on reduction, which living cells bring about.

Here are results for one molecule from paper PMC7912796, “Design, Synthesis, Anticancer Activity, and Solid Lipid Nanoparticle Formulation of Indole- and Benzimidazole-Based Compounds as Pro-Apoptotic Agents Targeting Bcl-2 Protein” (Pharmaceuticals, 2021).

As a reminder, the inhibition is the change of the read-out against control, counted positive when it falls. As a reminder, the IC50 is the concentration at which inhibition is half-maximal.

Turning to `CCCc1ccc(-c2nn(-c3ccccc3)cc2C=NNC(=O)c2cc3ccccc3[nH]2)cc1` [Compound 8b, N′-((1-phenyl-3-(4-propylphenyl)-1H-pyrazol-4-yl)methylene)-1H-indole-2-carbohydrazide], the Caspase-3 gene expression in experiment [1] turned out to be 4.28 folds. Further, the BAX gene expression in experiment [2] turned out to be 3.61 folds. Besides, the Caspase-8 gene expression in experiment [3] stood at 1.53 folds. This molecule yielded a Bcl-2 gene expression in experiment [4] of 0.165 folds. The same molecule showed a Caspase-9 gene expression in experiment [5] of 7.65 folds. Besides, the “class-III β-tubulin level” value in experiment [6] (13 μM, MDA-MB-231, control 0.73 ng/mL) was 0.23 ng/mL. In addition, the inhibition at 13 µM in experiment [6] (Homo sapiens, MDA-MB-231, vs control) was 68.4%. Further, in experiment [7], the Bax/Bcl expression ratio came to 21.88. Also, the IC50 in experiment [8] was 92.75 ± 0.43 µM; in experiment [8] (Canis lupus familiaris, MDCK, 48 h) it was 92 µM.
